Data on two compounds can be found in patent EP4653012A1 (Jiangsu Hengrui Pharmaceuticals Co., Ltd., priority 2023, dated 2024).

The IC50 is the midpoint of a concentration-inhibition curve. Read a high IC50 as a need for much substance.

Data set [1] relates to A549 (human non-small cell lung cancer cells). The data set is described as follows: In vitro cytotoxic activity screening (CTG assay). The class given is cell-based. Here is the method:
(§1) In this experiment, the ATP content was determined using CTG to reflect the survival condition of the tumor cells. […] The killing effect of the toxin molecule was then assayed according to this condition.
(§2) According to the purpose of the experiment, two disease models of breast cancer and NSCLC were selected, and three cell strains of SKBR3 tumor cells (HER2+, ATCC, Cat# HTB-30), MDA-MB-468 (HER2-, ATCC, Cat# HTB-132) and A549 (human non-small cell lung cancer cells, ATCC, Cat# CCL-185) were selected for screening.
(§3) The cells were counted, and 4.3 × 10^5, 7.2 × 10^5 and 11.5 × 10^5 cells were each added to a culture solution to give a final volume of 26 mL. 180 µL of cell suspension was added to each well in columns 2 to 11 of a 96-well plate (Corning, Cat# 3903) to give cell densities of 3K, 5K, and 8K per well. Wells in column 12 were each filled with 200 µL of culture solution and the remaining wells were each filled with PBS. The SKBR3 and MDA-MB-468 cells were subjected to the same operations described above. […] 2 mM stock solution (stock solution diluted 10-fold in DMSO) was prepared in column 1 of drug preparation plate 1, and then 10-fold gradient dilution in DMSO was performed through column 10, and the wells in column 11 were filled with DMSO. 95 µL of corresponding culture solution was added into each well from column 2 to column 11 of the drug preparation plate 2, and 5 µL of solution was pipetted from column 2 to column 11 of drug preparation plate 1 to drug preparation plate 2. The solution was mixed well, and 20 µL of solution was pipetted and added into the plated cells. The cells were then cultured for 3 days and 5 days. • 4) CTG assay (Cell Titer-GloTM, luminescent cell viability assay, Promega): the cell plates were taken out on day 3 and day 5 and equilibrated to room temperature. 90 µL of CTG was added into each well, and the mixture was reacted at room temperature for 10 min in the dark. The luminescence value was read using a microplate reader and IC50 was calculated.

Another data set relates to MDA-MB-468 (HER2-). Put plainly: In vitro cytotoxic activity screening (CTG assay). It is filed as cell-based. Here is the method:
as §1, §2, §3

In data set [2] the test system is SKBR3 tumor cells (HER2+). Put plainly: In vitro cytotoxic activity screening (CTG assay). It is filed as cell-based. How it is done:
as §1, §2, §3

A short description of data set [3]: Pharmacokinetic study in beagles, intravenous administration, plasma by LC/MS/MS. Conditions: 0.5 mg/kg.
Method: The pharmacokinetic behavior of the compound of the present disclosure in dogs was studied, and its pharmacokinetic profile was evaluated.
Six male beagles were divided into 2 groups of 3, purchased from Shanghai Medicilon Inc., and subjected to an administration test.
The collected blood samples were each placed in EDTA-K2 anticoagulant blood collection tubes, and the collected whole blood was placed on ice and centrifuged within 1 h to isolate the plasma (centrifugal force: 2200 g, centrifugal time: 10 min, 2-8 °C). Plasma samples were stored in a refrigerator at -80 °C prior to testing.
The content of the test compounds in beagle plasma after the injection was determined: 25 µL of beagle plasma at each time point after the administration was mixed with 50 µL (100 ng/mL) of internal standard solution camptothecin (China National Institutes for Food and Drug Control) and 200 µL of acetonitrile. The mixture was vortexed for 5 min and centrifuged for 10 min (3700 rpm), and 3-4 µL of the supernatant of the plasma sample was taken for LC/MS/MS assay (API4000 triple quadrupole tandem mass spectrometer (No. 2), Applied Biosystems, USA; Shimadzu, LC-30AD ultra high performance liquid chromatography system, Shimadzu, Japan).

As for `C=C1C[C@@H]2CC[C@@]34C[C@H]5O[C@H]6[C@@H](O3)[C@H]3O[C@H](CC[C@@H]3O[C@H]6[C@H]5O4)CC(=O)C[C@@H]3[C@@H](OC)[C@@H](C[C@@H](CN)OC)O[C@H]3C[C@H]3O[C@@H](CC[C@@H]1O2)C[C@@H](C)C3=C` [Compound 1], the Maximum inhibition rate in data set [1] (A549, CTG) was found to be 81.34%; in the data set on MDA-MB-468 (HER2-) (MDA-MB-468, CTG), 88.01%; in data set [2] (SKBR3, CTG) it was 96.87%. Further, the IC50 in data set [1] (Homo sapiens, A549) was found to be 0.515 nM; in the data set with MDA-MB-468 (HER2-) (Homo sapiens, MDA-MB-468), 0.183 nM; in data set [2] (Homo sapiens, SK-BR-3) it was 0.205 nM. Further, the “Plasma concentration C5min” value in data set [3] (beagles, intravenous) was 82.1 ng/mL.
Take `C=C1C[C@@H]2CC[C@@]34C[C@H]5O[C@H]6[C@@H](O3)[C@H]3O[C@H](CC[C@@H]3O[C@H]6[C@H]5O4)CC(=O)C[C@@H]3[C@@H](OC)[C@@H](C[C@H](O)CN)O[C@H]3C[C@H]3O[C@@H](CC[C@@H]1O2)C[C@@H](C)C3=C` [Eribulin, eribulin, reference compound]: the concentration at 5 min in data set [3] (male, beagle, dog, in vivo, iv) worked out at 217 ng/mL.
